Experimental data as given in PubChem BioAssay (NCI).
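Protocol summary: plate cells (96-well), add compound at 5 concentrations, incubate 48 h, interpolate endpoints linearly. Abbreviation: GI50, concentration required for 50% inhibition of growth. TGI is the concentration that stops growth completely.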

What was measured:
Experiment in all cases: NCI tumour cell line growth inhibition, 48 h
OVCAR-3 ovarian = system: OVCAR-3 ovarian
OVCAR-5 ovarian = system: OVCAR-5 ovarian
SK-MEL-28 melanoma = system: SK-MEL-28 melanoma
SK-OV-3 ovarian = system: SK-OV-3 ovarian
NCI/ADR-RES ovarian = system: NCI/ADR-RES ovarian
A549 NSCLC = system: A549 NSCLC
EKVX NSCLC = system: EKVX NSCLC
HCT-15 colon = system: HCT-15 colon
M14 melanoma = system: M14 melanoma
A498 renal = system: A498 renal
MCF7 breast = system: MCF7 breast
SN12C renal = system: SN12C renal
PC-3 prostate = system: PC-3 prostate
SF-295 CNS = system: SF-295 CNS
HOP-92 NSCLC = system: HOP-92 NSCLC
ACHN renal = system: ACHN renal
IGROV1 ovarian = system: IGROV1 ovarian
RPMI-8226 leukemia = system: RPMI-8226 leukemia
T-47D breast = system: T-47D breast
SNB-19 CNS = system: SNB-19 CNS
SF-268 CNS = system: SF-268 CNS
UO-31 renal = system: UO-31 renal
SF-539 CNS = system: SF-539 CNS
HCT-116 colon = system: HCT-116 colon
NCI-H226 lung = system: NCI-H226 lung
HT29 colon = system: HT29 colon
COLO 205 colon = system: COLO 205 colon
DU-145 prostate = system: DU-145 prostate
BT-549 breast = system: BT-549 breast
NCI-H522 lung = system: NCI-H522 lung
SW-620 colon = system: SW-620 colon
CAKI-1 renal = system: CAKI-1 renal
NCI-H23 lung = system: NCI-H23 lung
LOX IMVI melanoma = system: LOX IMVI melanoma
UACC-257 melanoma = system: UACC-257 melanoma
MALME-3M melanoma = system: MALME-3M melanoma
HCC-2998 colon = system: HCC-2998 colon
SNB-75 CNS = system: SNB-75 CNS
NCI-H460 lung = system: NCI-H460 lung
MDA-MB-231 breast = system: MDA-MB-231 breast
TK-10 renal = system: TK-10 renal
OVCAR-4 ovarian = system: OVCAR-4 ovarian
SK-MEL-5 melanoma = system: SK-MEL-5 melanoma
786-0 renal = system: 786-0 renal
KM12 colon = system: KM12 colon
UACC-62 melanoma = system: UACC-62 melanoma
OVCAR-8 ovarian = system: OVCAR-8 ovarian
HS 578T breast = system: HS 578T breast
RXF 393 renal = system: RXF 393 renal
SK-MEL-2 melanoma = system: SK-MEL-2 melanoma
U251 CNS = system: U251 CNS
MDA-MB-435 = system: MDA-MB-435

CCCCCCCCc1cc[n+](CC(=O)c2ccc(Br)cc2)cc1
GI50 (OVCAR-3 ovarian): 1440 nM
TGI (OVCAR-3 ovarian): 2750 nM
GI50 (OVCAR-5 ovarian): 1460 nM
TGI (OVCAR-5 ovarian): 2900 nM
GI50 (SK-MEL-28 melanoma): 1640 nM
TGI (SK-MEL-28 melanoma): 3040 nM
GI50 (SK-OV-3 ovarian): 1530 nM
TGI (SK-OV-3 ovarian): 2950 nM
GI50 (NCI/ADR-RES ovarian): 8770 nM
TGI (NCI/ADR-RES ovarian): 21900 nM
GI50 (A549 NSCLC): 1770 nM
TGI (A549 NSCLC): 3250 nM
GI50 (EKVX NSCLC): 1380 nM
TGI (EKVX NSCLC): 2800 nM
GI50 (HCT-15 colon): 1640 nM
TGI (HCT-15 colon): 3200 nM
GI50 (M14 melanoma): 1750 nM
TGI (M14 melanoma): 3240 nM
GI50 (A498 renal): 4420 nM
TGI (A498 renal): 18100 nM
GI50 (MCF7 breast): 1520 nM
TGI (MCF7 breast): 2840 nM
GI50 (SN12C renal): 1550 nM
TGI (SN12C renal): 2980 nM
GI50 (PC-3 prostate): 1510 nM
TGI (PC-3 prostate): 3000 nM
GI50 (SF-295 CNS): 1440 nM
TGI (SF-295 CNS): 2830 nM
GI50 (HOP-92 NSCLC): 1470 nM
TGI (HOP-92 NSCLC): 4100 nM
GI50 (ACHN renal): 1640 nM
TGI (ACHN renal): 2990 nM
GI50 (IGROV1 ovarian): 1090 nM
TGI (IGROV1 ovarian): 2450 nM
GI50 (RPMI-8226 leukemia): 1770 nM
TGI (RPMI-8226 leukemia): 3790 nM
GI50 (T-47D breast): 1640 nM
TGI (T-47D breast): 3140 nM
GI50 (SNB-19 CNS): 1590 nM
TGI (SNB-19 CNS): 3310 nM
GI50 (SF-268 CNS): 1580 nM
TGI (SF-268 CNS): 2920 nM
GI50 (UO-31 renal): 1490 nM
TGI (UO-31 renal): 3190 nM
GI50 (SF-539 CNS): 1610 nM
TGI (SF-539 CNS): 2960 nM
GI50 (HCT-116 colon): 1190 nM
TGI (HCT-116 colon): 2490 nM
GI50 (NCI-H226 lung): 1510 nM
TGI (NCI-H226 lung): 3010 nM
GI50 (HT29 colon): 580 nM
TGI (HT29 colon): 1970 nM
GI50 (COLO 205 colon): 1090 nM
TGI (COLO 205 colon): 2280 nM
GI50 (DU-145 prostate): 1510 nM
TGI (DU-145 prostate): 2860 nM
GI50 (BT-549 breast): 2440 nM
TGI (BT-549 breast): 5520 nM
GI50 (NCI-H522 lung): 1020 nM
TGI (NCI-H522 lung): 2260 nM
GI50 (SW-620 colon): 1410 nM
TGI (SW-620 colon): 2770 nM
GI50 (CAKI-1 renal): 1370 nM
TGI (CAKI-1 renal): 2840 nM
GI50 (NCI-H23 lung): 1480 nM
TGI (NCI-H23 lung): 2990 nM
GI50 (LOX IMVI melanoma): 1570 nM
TGI (LOX IMVI melanoma): 2910 nM
GI50 (UACC-257 melanoma): 1640 nM
TGI (UACC-257 melanoma): 3110 nM
GI50 (MALME-3M melanoma): 1690 nM
TGI (MALME-3M melanoma): 3500 nM
GI50 (HCC-2998 colon): 1610 nM
TGI (HCC-2998 colon): 2960 nM
GI50 (SNB-75 CNS): 1280 nM
TGI (SNB-75 CNS): 2540 nM
GI50 (NCI-H460 lung): 1650 nM
TGI (NCI-H460 lung): 3070 nM
GI50 (MDA-MB-231 breast): 1450 nM
TGI (MDA-MB-231 breast): 2850 nM
GI50 (TK-10 renal): 1400 nM
TGI (TK-10 renal): 2700 nM
GI50 (OVCAR-4 ovarian): 1110 nM
TGI (OVCAR-4 ovarian): 2310 nM
GI50 (SK-MEL-5 melanoma): 1510 nM
TGI (SK-MEL-5 melanoma): 2890 nM
GI50 (786-0 renal): 1870 nM
TGI (786-0 renal): 3300 nM
GI50 (KM12 colon): 1490 nM
TGI (KM12 colon): 2810 nM
GI50 (UACC-62 melanoma): 1440 nM
TGI (UACC-62 melanoma): 2760 nM
GI50 (OVCAR-8 ovarian): 1680 nM
TGI (OVCAR-8 ovarian): 3220 nM
GI50 (HS 578T breast): 1860 nM
TGI (HS 578T breast): 3750 nM
GI50 (RXF 393 renal): 1690 nM
TGI (RXF 393 renal): 3170 nM
GI50 (SK-MEL-2 melanoma): 1610 nM
TGI (SK-MEL-2 melanoma): 3030 nM
GI50 (U251 CNS): 1470 nM
TGI (U251 CNS): 2790 nM
GI50 (MDA-MB-435): 1540 nM
TGI (MDA-MB-435): 2970 nM
